Key:
[1] = Cascade Impactor (Andersen) test, MDI actuator for stand-alone (handheld) use; type: physicochemical
Description: The particle size of an inhalation drug may be measured by an instrument called a Cascade Impactor, which consists of multiple discs. The size of the discs is graduated to properly determine the size of the particulate matter at various stages of the Cascade Impactor, which each represent the drug delivery to different portions of the entire respiratory tract. The Cascade Impactor collects samples of the drug in a graduated manner on each disc such that the average particle size of the collected drugs can be measured for each stage.
As discussed above, the particle size of an inhalation drug, namely the API, can be measured by a Cascade Impactor (Westech Instruments), which consists of multiple stages (0-7). The particle sizes at each stage are listed in Table 8, which represents the drug delivery to different portions of the entire respiratory tract using a stand-alone MDI actuator, for example actuator 500, discussed above.
As described above, the disclosed MDI actuator nozzles may include an inner diameter that is optimized to dispense fine API particle sizes, such as API particles having a diameter of about 1.1 μm or less. Table 12, below, outlines a study of the amount percentage (%) of fine API particles having particle diameters of less than about 1.1 μm versus nozzle inner diameter size of the disclosed MDI actuators, for example MDI actuator 500. […] The general components of MDI actuator 500 was utilized, but different nozzle inner diameter sizes were tested in this study. In particular, 3 different MDI actuators were tested: (1) MDI actuator having 0.42 mm nozzle inner diameter (“MDI Actuator A”), (2) MDI actuator having 0.28 mm nozzle inner diameter (“MDI Actuator B”), and (3) MDI actuator having 0.20 mm nozzle inner diameter (“MDI Actuator C”).

[2] = Estimated HCQ concentration in alveolar fluid (oral tablets, inhalation); set-up: species or system human
Protocol: The HCQ molecules in the plasma can penetrate capillaries outside the alveolar membrane to reach the alveolar lining fluid (“ALF”).
A similar analysis was performed for HCQ administered by inhalation.

[3] = human, in vivo, po; cited from earlier work
[4] = HCQ particles typically inhaled to treat asthma; cited from earlier work
[5] = In-line Cascade Impactor (Andersen) evaluation, MDI actuator through elbow connection and ventilator tubing; type: physicochemical; set-up: Delivered <1.1 mcm / Delivered <4.7 mcm: unit not given here; settings: 5% EtOH; for Delivered <4.7 mcm: Plate 3~5
Protocol: An example of a ventilator device, for example ventilator device 1700A, was tested and compared to a self-administrable, handheld MDI to determine the target site delivery efficiency in the ventilator circuit as compared to the MDI delivery efficiency without the ventilator circuit (e.g. no elbow connector or ventilator tubing).
Prime HCQ valve by discharging a predetermined number of actuations to waste. Discharge 10 actuations with actuator H004B-a into the cascade impaction sampling apparatus through an elbow connection w/inner channel and an in-line tubing (55 cm long).
Prime HCQ valve by discharging a predetermined number of actuations to waste. Discharge 10 actuations with actuator H004B-c into the cascade impaction sampling apparatus through an elbow connection with an inner channel and an in-line tubing (55 cm long).
Prime HCQ valve by discharging a predetermined number of actuations to waste. […]

## CCN(CCO)CCCC(C)Nc1ccnc2cc(Cl)ccc12 (stereo not shown) [HCQ, hydroxychloroquine]
[1]; Actuator A (nozzle 0.42 mm)
  EPM (6-filter; P6-F, <1.1 μm for Alveoli), Compared to strength (delivery rate): 21.6%
[1]; Actuator B (nozzle 0.28 mm)
  EPM (6-filter; P6-F, <1.1 μm for Alveoli), Compared to strength (delivery rate): 39.7%
[1]; Actuator C (nozzle 0.20 mm)
  EPM (6-filter; P6-F, <1.1 μm for Alveoli), Compared to strength (delivery rate): about 53.9%
[1]; Alveoli, <1.1 mcm, actuator O-0.20, 5% EtOH, 200 mcg
  Delivery Rate: 44.5%
[1]; Alveoli, <1.1 mcm, actuator O-0.20, 5% EtOH, 200 mcg (Table 21)
  Delivery Rate: 44.5%
[1]; Alveoli, actuator O-0.20, 5% EtOH, 200 mcg
  Delivered <1.1 mcm: 89
[1]; Alveoli, actuator O-0.20, 5% EtOH, 200 mcg (Table 21)
  Delivered <1.1 mcm: 89
[1]; Plate 3~5, <4.7 mcm, actuator O-0.20, 5% EtOH, 200 mcg
  Delivery Rate: 50.7%
[1]; Plate 3~5, actuator O-0.20, 5% EtOH, 200 mcg
  Delivered <4.7 mcm: 101.3
[2]; after administration of HCQ by inhalation
  estimated concentration of HCQ in alveolar fluid: up to 22 μM
[2]; oral tablets, Day-1 (800 mg dose, after 2nd 400 mg dose)
  estimated concentration of HCQ in alveolar fluid: 0.45 µM
[2]; oral tablets, Day-1 after the 1st 400 mg dose
  estimated concentration of HCQ in alveolar fluid: 0.23 µM
[2]; oral tablets, Day-2
  estimated concentration of HCQ in alveolar fluid: 0.67 µM
[2]; oral tablets, Day-5 (total dose of 2,400 mg)
  estimated concentration of HCQ in alveolar fluid: 1.3 µM
[3]
  BA: 74%
  share of tablet dose distributed to red blood cells or other protein in blood: approximately 0.25%
  share of tablet dose not absorbed or initially metabolized in liver: approximately 26%
[4]
  mean HCQ particle size: 3.2 μm
[5]; Alveoli, <1.1 mcm, in-Linc Tube (15 cm), HCQB-c, connection w/o inner channel, 200 mcg (#6)
  Delivery Rate: 34.2%
[5]; Alveoli, <1.1 mcm, in-Line Tube (15 cm), HCQB-a, connection w/o inner channel, 200 mcg
  Delivery Rate: 32.2%
[5]; Alveoli, <1.1 mcm, in-Line Tube (15 cm), HCQB-b, connection w/o inner channel, 200 mcg
  Delivery Rate: 31.3%
[5]; Alveoli, <1.1 mcm, in-Line Tube (15 cm), HCQB-c, connection w/o inner channel, 200 mcg (#4)
  Delivery Rate: 43.3%
[5]; Alveoli, <1.1 mcm, in-Line Tube (15 cm), HCQB-d, connection w/o inner channel, Ave, 200 mcg
  Delivery Rate: 36.9%
[5]; Alveoli, <1.1 mcm, in-Line Tube (15 cm), HCQB-f, connection w/o inner channel, 200 mcg
  Delivery Rate: 23.2%
[5]; Alveoli, <1.1 mcm, in-Line Tube (15 cm), HCQB-g, connection w/inner channel, 200 mcg
  Delivery Rate: 34.0%
[5]; Alveoli, <1.1 mcm, in-Line Tube (15 cm), HCQB-g, connection w/o inner channel, 200 mcg
  Delivery Rate: 31.5%
[5]; Alveoli, <1.1 mcm, in-Line Tube (15 cm), HCQB-h, connection w/ inner channel, 200 mcg
  Delivery Rate: 35.9%
[5]; Alveoli, <1.1 mcm, in-Line Tube (15 cm), HCQB-h, connection w/o inner channel, 200 mcg
  Delivery Rate: 31.1%
[5]; Alveoli, <1.1 mcm, in-Line Tube (15 cm), HCQB-i, connection w/inner channel, 200 mcg
  Delivery Rate: 27.5%
[5]; Alveoli, <1.1 mcm, in-Line Tube (15 cm), HCQB-i, connection w/o inner channel, 200 mcg
  Delivery Rate: 37.9%
[5]; Alveoli, <1.1 mcm, in-Line Tube (15 cm), HCQB-j, connection w/o inner channel, 200 mcg
  Delivery Rate: 29.1%
[5]; Alveoli, <1.1 mcm, in-Line Tube (55 cm), HCQB-a, connection w/inner channel, 200 mcg
  Delivery Rate: 19.3%
[5]; Alveoli, <1.1 mcm, in-Line Tube (55 cm), HCQB-b, connection w/inner channel, 200 mcg
  Delivery Rate: 26.9%
[5]; Alveoli, <1.1 mcm, in-Line Tube (55 cm), HCQB-c, connection w/inner channel, Ave, 200 mcg
  Delivery Rate: 37.9%
[5]; Alveoli, <1.1 mcm, in-Line Tube (55 cm), HCQB-d, connection w/inner channel, 200 mcg
  Delivery Rate: 26.4%
[5]; Alveoli, <1.1 mcm, in-Line Tube (55 cm), HCQB-f, connection w/inner channel, Ave, 200 mcg
  Delivery Rate: 34.7%
[5]; Alveoli, <1.1 mcm, in-Line Tube (55 cm), HCQB-j, connection w/ inner channel, 200 mcg
  Delivery Rate: 30.3%
[5]; Alveoli, in-Linc Tube (15 cm), HCQB-c, connection w/o inner channel, 200 mcg (#6)
  Delivered <1.1 mcm: 68.4
[5]; Alveoli, in-Line Tube (15 cm), HCQB-a, connection w/o inner channel, 200 mcg
  Delivered <1.1 mcm: 64.4
[5]; Alveoli, in-Line Tube (15 cm), HCQB-b, connection w/o inner channel, 200 mcg
  Delivered <1.1 mcm: 62.6
[5]; Alveoli, in-Line Tube (15 cm), HCQB-c, connection w/o inner channel, 200 mcg (#4)
  Delivered <1.1 mcm: 86.6
[5]; Alveoli, in-Line Tube (15 cm), HCQB-d, connection w/o inner channel, Ave, 200 mcg
  Delivered <1.1 mcm: 73.8
[5]; Alveoli, in-Line Tube (15 cm), HCQB-f, connection w/o inner channel, 200 mcg
  Delivered <1.1 mcm: 46.3
[5]; Alveoli, in-Line Tube (15 cm), HCQB-g, connection w/inner channel, 200 mcg
  Delivered <1.1 mcm: 68.0
[5]; Alveoli, in-Line Tube (15 cm), HCQB-g, connection w/o inner channel, 200 mcg
  Delivered <1.1 mcm: 63.0
[5]; Alveoli, in-Line Tube (15 cm), HCQB-h, connection w/ inner channel, 200 mcg
  Delivered <1.1 mcm: 71.7
[5]; Alveoli, in-Line Tube (15 cm), HCQB-h, connection w/o inner channel, 200 mcg
  Delivered <1.1 mcm: 62.1
[5]; Alveoli, in-Line Tube (15 cm), HCQB-i, connection w/inner channel, 200 mcg
  Delivered <1.1 mcm: 55.0
[5]; Alveoli, in-Line Tube (15 cm), HCQB-i, connection w/o inner channel, 200 mcg
  Delivered <1.1 mcm: 75.7
[5]; Alveoli, in-Line Tube (15 cm), HCQB-j, connection w/o inner channel, 200 mcg
  Delivered <1.1 mcm: 58.1
[5]; Alveoli, in-Line Tube (55 cm), HCQB-a, connection w/inner channel, 200 mcg
  Delivered <1.1 mcm: 38.5
[5]; Alveoli, in-Line Tube (55 cm), HCQB-b, connection w/inner channel, 200 mcg
  Delivered <1.1 mcm: 53.8
[5]; Alveoli, in-Line Tube (55 cm), HCQB-c, connection w/inner channel, Ave, 200 mcg
  Delivered <1.1 mcm: 75.8
[5]; Alveoli, in-Line Tube (55 cm), HCQB-d, connection w/inner channel, 200 mcg
  Delivered <1.1 mcm: 52.8
[5]; Alveoli, in-Line Tube (55 cm), HCQB-f, connection w/inner channel, Ave, 200 mcg
  Delivered <1.1 mcm: 69.4
[5]; Alveoli, in-Line Tube (55 cm), HCQB-j, connection w/ inner channel, 200 mcg
  Delivered <1.1 mcm: 60.5
[5]; Plate 3~5, <4.7 mcm, in-Line Tube (15 cm), HCQB-g, connection w/inner channel, 200 mcg
  Delivery Rate: 30.5%
[5]; Plate 3~5, <4.7 mcm, in-Line Tube (15 cm), HCQB-h, connection w/inner channel, 200 mcg
  Delivery Rate: 25.8%
[5]; Plate 3~5, <4.7 mcm, in-Line Tube (15 cm), HCQB-i, connection w/inner channel, 200 mcg
  Delivery Rate: 22.8%
[5]; Plate 3~5, <4.7 mcm, in-Line Tube (55 cm), HCQB-a, connection w/inner channel, 200 mcg
  Delivery Rate: 13.3%
[5]; Plate 3~5, <4.7 mcm, in-Line Tube (55 cm), HCQB-b, connection w/inner channel, 200 mcg
  Delivery Rate: 21.3%
[5]; Plate 3~5, <4.7 mcm, in-Line Tube (55 cm), HCQB-c, connection w/inner channel, 200 mcg
  Delivery Rate: 29.0%
[5]; Plate 3~5, <4.7 mcm, in-Line Tube (55 cm), HCQB-d, connection w/inner channel, 200 mcg
  Delivery Rate: 23.3%
[5]; Plate 3~5, <4.7 mcm, in-Line Tube (55 cm), HCQB-e, connection w/inner channel, 200 mcg
  Delivery Rate: 29.0%
[5]; Plate 3~5, <4.7 mcm, in-Line Tube (55 cm), HCQB-f, connection w/inner channel, 200 mcg
  Delivery Rate: 28.3%
[5]; Plate 3~5, <4.7 mcm, in-Line Tube (55 cm), HCQB-j, connection w/inner channel, 200 mcg
  Delivery Rate: 20.0%
[5]; in-Line Tube (15 cm), HCQB-g, connection w/inner channel, 200 mcg
  Delivered <4.7 mcm: 60.9
[5]; in-Line Tube (15 cm), HCQB-h, connection w/inner channel, 200 mcg
  Delivered <4.7 mcm: 51.6
[5]; in-Line Tube (15 cm), HCQB-i, connection w/inner channel, 200 mcg
  Delivered <4.7 mcm: 45.5
[5]; in-Line Tube (55 cm), HCQB-a, connection w/inner channel, 200 mcg
  Delivered <4.7 mcm: 26.5
[5]; in-Line Tube (55 cm), HCQB-b, connection w/inner channel, 200 mcg
  Delivered <4.7 mcm: 42.6
[5]; in-Line Tube (55 cm), HCQB-c, connection w/inner channel, 200 mcg
  Delivered <4.7 mcm: 57.9
[5]; in-Line Tube (55 cm), HCQB-d, connection w/inner channel, 200 mcg
  Delivered <4.7 mcm: 46.6
[5]; in-Line Tube (55 cm), HCQB-e, connection w/inner channel, 200 mcg
  Delivered <4.7 mcm: 57.9
[5]; in-Line Tube (55 cm), HCQB-f, connection w/inner channel, 200 mcg
  Delivered <4.7 mcm: 56.5
[5]; in-Line Tube (55 cm), HCQB-j, connection w/inner channel, 200 mcg
  Delivered <4.7 mcm: 39.9
